{"source": "paper PMC2074379", "about": "(British Journal of Cancer, 1996)", "tested_on": "serine carboxypeptidase", "assay": "Effect of PMSF on the in vitro metabolism of antagonist D in 2% mouse liver homogenate", "type": "biochemical", "settings": "antagonist D 100 µg in 1.0 ml 2% w/v mouse liver homogenate in PBS, 37°C; PMSF 0-2.5 mM preincubated 15 min at 23°C; HPLC; mean of two to four experiments", "description": "British Journal of Cancer (1996) 73, 715-720 ? 1996 Stockton Press All rights reserved 0007-0920/96 $12.00 % Metabolism of the broad-spectrum neuropeptide growth factor antagonist: ID-Arg1, D-Phe5, D-Trp7'9, Leull\"-substance P DA Jones', J Cummings', SP Langdon', AJ Maclellan', T Higgins2, E Rozengurt2 and JF Smyth' 'Imperial Cancer Research Fund, Medical Oncology Unit, Western General Hospital, Edinburgh EH4 2XU; 2Imperial Cancer Research Fund, PO Box 123, Lincoln's Inn Fields, London WC2A 3PX, UK. Summary Broad-spectrum neuropeptide growth factor antagonists, such as [D-Arg', D-Phe5, D-Trp7'9, Leu']substance P (antagonist D) and [Arg6, D-Trp7'9, NmePhe8]substance p(6- 11) (antagonist G), are currently being investigated as possible anti-tumour agents. These compounds are hoped to be effective against neuropeptide-driven cancers such as small-cell lung cancer. […] The in vitro metabolism of antagonist D has been characterised and the structures of two major metabolites have been elucidated by amino acid analysis and mass spectrometry. […] HPLC The HPLC system used consisted of two 510 HPLC pumps, a 712 WISP autosampler, a TCM column heater (all Waters, Northwich, UK) and a model 1046A fluorescence detector (Hewlett Packard, Walborn, Germany). […]", "data": [{"smiles": "O=S(=O)(F)Cc1ccccc1", "note": "[PMSF, phenylmethylsulfonylfluoride]", "values": [{"measurement": "PMSF concentration sufficient to cause almost complete arrest of the metabolism of antagonist D", "result": 1.0, "unit": "mM"}]}]}
